Like-named read-outs stand apart in the source and are kept apart here.
Columns and labels:
OR49b = test system: OR49b; parameters: method as in earlier work; conditions: DoOR database value; ref DoOR; cited from earlier work
OR47a = test system: OR47a; parameters: method as in earlier work; conditions: DoOR database value; ref DoOR; cited from earlier work
Drosophila OR85b = biological target: T1, Drosophila OR85b (Drosophila melanogaster, UniProt Q9VHQ7); test: Calcium ion fluorescence (GCaMP6) assay, OR85b stable HEK293 cell line; format: cell-based; conditions: for Average response: VUAA1-normalized response, mean of biological replicates
T1 construct: expressed in transfected cells
T1 sequence (Q9VHQ7 1-390): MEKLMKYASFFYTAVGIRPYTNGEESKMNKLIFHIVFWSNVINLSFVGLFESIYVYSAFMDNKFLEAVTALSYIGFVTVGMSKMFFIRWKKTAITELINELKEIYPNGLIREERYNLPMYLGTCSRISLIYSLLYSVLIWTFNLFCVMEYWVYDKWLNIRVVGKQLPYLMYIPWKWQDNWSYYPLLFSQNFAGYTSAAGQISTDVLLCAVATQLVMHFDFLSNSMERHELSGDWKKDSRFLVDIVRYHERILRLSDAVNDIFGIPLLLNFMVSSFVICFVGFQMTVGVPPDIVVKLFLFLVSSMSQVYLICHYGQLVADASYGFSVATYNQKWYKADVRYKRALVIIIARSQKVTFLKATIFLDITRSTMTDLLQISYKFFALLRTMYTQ
T1 sequence (Q9VNB5 1-486 partner): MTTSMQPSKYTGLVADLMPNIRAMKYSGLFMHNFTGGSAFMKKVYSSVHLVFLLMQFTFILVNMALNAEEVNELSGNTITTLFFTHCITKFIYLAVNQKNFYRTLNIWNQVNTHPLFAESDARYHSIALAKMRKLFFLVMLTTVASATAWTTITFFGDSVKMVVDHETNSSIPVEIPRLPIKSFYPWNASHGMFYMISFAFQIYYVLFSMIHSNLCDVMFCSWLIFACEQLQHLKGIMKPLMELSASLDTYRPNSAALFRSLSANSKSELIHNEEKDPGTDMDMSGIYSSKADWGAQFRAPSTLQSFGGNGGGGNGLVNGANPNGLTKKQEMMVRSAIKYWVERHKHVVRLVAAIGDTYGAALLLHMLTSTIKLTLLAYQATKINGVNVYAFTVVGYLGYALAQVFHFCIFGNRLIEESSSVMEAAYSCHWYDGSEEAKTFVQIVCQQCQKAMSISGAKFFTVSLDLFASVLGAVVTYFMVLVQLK
Outline: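 Responses are VUAA1-normalized ΔF: each VOC-evoked calcium signal, (FMAX−F0)/F0 over 30 s after injection, divided by the same line's mean 50 µM VUAA1 response. Cells were doxycycline-induced HEK293 with GCaMP6 and the cognate Drosophila OR, in HEPES buffer pH 7.3; ligands tested 0.01–100 μM.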

OR13a = test system: OR13a; parameters: method as in earlier work; conditions: DoOR database value, ref DoOR, cited from earlier work
OR98a = test system: OR98a; parameters: method as in earlier work; conditions: DoOR database value; ref DoOR; cited from earlier work
OR85b = test system: OR85b; parameters: method as in earlier work; conditions: DoOR database value; ref DoOR; cited from earlier work
OR10a = test system: OR10a; parameters: method as in earlier work; conditions: DoOR database value, ref DoOR, cited from earlier work
[1] = HEK293, read-out: OR85b response (VUAA1-normalized response)
[2] = concentration 1, normalized fluorescence change, values below 0.05 threshold given as 0
[3] = concentration 10, normalized fluorescence change, values below 0.05 threshold given as 0
[4] = concentration 100, normalized fluorescence change, values below 0.05 threshold given as 0
[5] = HEK293, read-out: OR85b Average response (VUAA1-normalized)
[6] = ligand concentration 1 (unit not given), threshold 0.05, below shown as 0
[7] = ligand concentration 10 (unit not given), threshold 0.05, below shown as 0
[8] = ligand concentration 100 (unit not given), threshold 0.05, below shown as 0

SMILES | OR49b DoOR response (OR49b) | OR47a DoOR response (OR47a) | activation at 1 µM (Drosophila OR85b; [1]) [%] | activation at 10 µM (Drosophila OR85b; [1]) [%] | activation at 100 µM (Drosophila OR85b; [1]) [%] | Average response (Drosophila OR85b; OR85b cell line, cc. 1 µM) | Average response (Drosophila OR85b; OR85b cell line, cc. 10 µM) | Average response (Drosophila OR85b; OR85b cell line, cc. 100 µM) | DF norm AVERAGE OR85b (Drosophila OR85b; [2]) | DF norm AVERAGE OR85b (Drosophila OR85b; [3]) | DF norm AVERAGE OR85b (Drosophila OR85b; [4]) | OR13a DoOR response (OR13a) | OR98a DoOR response (OR98a) | OR85b DoOR response (OR85b) | OR10a DoOR response (OR10a) | other results
C=C1CC/C=C(\C)CC[C@@H]2[C@@H]1CC2(C)C [(-)-trans-caryophyllene] | 0.001 | -0.002 | 0 | 0 | 0 | 0.00 | 0.00 | 0.0238 | 0 | 0 | 0 | 0.0851 | -0.004 | 0.053 | -0.002 | –
CCCCCC(C)O (stereo not drawn) [2-heptanol] | – | – | 0 | 0 | 32 | 0.0455 | 0.05 | 0.32 | 0 | 0 | 0.3169 | 0.67 | – | – | 0.009 | activation at 1 µM (Drosophila OR85b; [5]): 5%; activation at 10 µM (Drosophila OR85b; [5]): 5%; activation at 100 µM (Drosophila OR85b; [5]): 32%
CC/C=C\CCOC(C)=O [Z-3-hexenyl acetate] | – | – | – | – | – | – | – | – | – | – | – | – | – | – | – | OR85b response (VUAA1-normalized) at 1 μM (Drosophila OR85b; OR85b cell line, VOC concentration 1 μM): 0.15; OR85b response (VUAA1-normalized) at 10 μM (Drosophila OR85b; OR85b cell line, VOC concentration 10 μM): 0.00; OR85b response (VUAA1-normalized) at 100 μM (Drosophila OR85b; OR85b cell line, VOC concentration 100 μM): 0.00; OR13a DoOR response (OR13a; OR13a): 0.42; OR10a DoOR response (OR10a; OR10a): 0.004
CCOC(=O)CC [ethyl propionate] | 0.017 | 0.16 | 0 | 0 | 9 | 0.00 | 0.037 | 0.09 | – | – | – | 0.034 | 0.08 | 0.066 | 0.064 | DF norm AVERAGE OR85b (Drosophila OR85b; [6]): 0; DF norm AVERAGE OR85b (Drosophila OR85b; [7]): 0; DF norm AVERAGE OR85b (Drosophila OR85b; [8]): 0.09327
CCCCCC(=O)OCC [ethyl hexanoate] | 0.007 | 0.42 | 0 | 0 | 0 | 0.00 | 0.05 | 0.0232 | – | – | – | – | 0.17 | 0.24 | -0.012 | DF norm AVERAGE OR85b (Drosophila OR85b; [6]): 0; DF norm AVERAGE OR85b (Drosophila OR85b; [7]): 0; DF norm AVERAGE OR85b (Drosophila OR85b; [8]): 0
CC/C=C\CCO [E-3-hexenol] | 0.057 | 0.065 | – | – | – | – | – | – | – | – | – | – | 0.44 | 0.75 | 0.04 | OR85b response (VUAA1-normalized response) (Drosophila OR85b; VOC concentration 1 μM): 0.00; OR85b response (VUAA1-normalized response) (Drosophila OR85b; VOC concentration 10 μM): 0.00; OR85b response (VUAA1-normalized response) (Drosophila OR85b; VOC concentration 100 μM): 0.00
CCCCC(C)O (stereo not drawn) [2-hexanol] | – | – | 0 | 0 | 0 | 0.05 | 0.00 | 0.00 | 0 | 0 | 0 | 0.58 | – | – | 0.14 | –
CC1=CCC2C(C1)C2(C)C (stereo not drawn) [3-carene] | 0.002 | -0.002 | 0 | 0 | 0 | 0.00 | 0.00 | 0.00 | 0 | 0 | 0 | – | -0.009 | -0.008 | -0.005 | –
CCCCC(C)=O [2-hexanone] | – | – | 0 | 6 | 0 | 0.00 | 0.06 | 0.0338 | 0 | 0.05777 | 0 | 0.13 | – | – | 0.10 | –
CCCCCCCO [1-heptanol] | – | 0.095 | 0 | 0 | 0 | 0.00 | 0.00 | 0.00 | 0 | 0 | 0 | 0.28 | – | – | – | –
C=C(C)[C@H]1CC=C(C)CC1 [(R)-(+)-limonene] | 0.03 | – | – | – | – | 0.0426 | 0.03 | 0.00 | 0 | 0 | 0 | 0.057 | 0.085 | 0.034 | 0.07 | OR85b response (VUAA1-normalized response) (Drosophila OR85b; VOC concentration 1 μM): 0.00; OR85b response (VUAA1-normalized response) (Drosophila OR85b; VOC concentration 10 μM): 0.00; OR85b response (VUAA1-normalized response) (Drosophila OR85b; VOC concentration 100 μM): 0.00
